Results reported in patent publication US20120041030A1, “PYRIDINE THIO DERIVATIVE, AND PHARMACEUTICAL COMPOSITION WHICH CONTAINS SAME AND HAS ANTI-HELICOBACTER PYLORI ACTION” (priority 2009, published 2012).

Assays:
Type in all cases: cell-based
[1] = system: Helicobacter pylori (ATCC 43504); assay: Antibacterial test (MIC) against Helicobacter pylori; details: for minimum inhibitory concentration (MIC): Helicobacter pylori ATCC 43504
Experimental: (§1) ATCC43504 which was a standard bacterial strain was used as Helicobacter pylori (H. pylori) to perform the test in vitro in a Columbia agar medium. The bacteria were cultured at 37° C. and a pH of 7.0 for three days. The minimum inhibitory concentration (MIC, μg/ml) was found on the fourth day. Each sample was dissolved in 1% DMSO to use. […] As bacteria for comparison, Gram negative bacteria, for example, E. coli (ATCC 10536 ATCC 25922), Klebsiella pneumonia (ATCC 10031), Proteus vulgaris (ATCC 13315), Pseudomonas aeruginosa (ATCC 9027) and Salmonella typhimurium (ATCC 13311) were used and Gram positive bacteria, for example, Staphylococcus aureus, MRSA (ATCC 33591), Staphylococcus epidermidis (ATCC 12228), Streptococcus pneumonia (ATCC 6301), Mycobacterium ranae (ATCC 110) and Enterococcus faecalis (VRE, ATCC 51575) were used.
(§2) The values in each table show minimum inhibitory concentrations (MIC, μg/ml).

[2] = system: Enterococcus faecalis (VRE, ATCC 51575); assay: Antibacterial test (MIC), comparison bacteria; details: Gram positive
Experimental: as §1, §2

[3] = system: Escherichia coli (ATCC 10536); assay: Antibacterial test (MIC), comparison bacteria; details: for minimum inhibitory concentration (MIC): Gram negative
Experimental: as §1, §2

[4] = system: Escherichia coli (ATCC 25922); assay: Antibacterial test (MIC), comparison bacteria; details: for minimum inhibitory concentration (MIC): Gram negative
Experimental: as §1, §2

[5] = system: Klebsiella pneumonia (ATCC 10031); assay: Antibacterial test (MIC), comparison bacteria; details: for minimum inhibitory concentration (MIC): Gram negative
Experimental: as §1, §2

[6] = system: Mycobacterium ranae (ATCC 110); assay: Antibacterial test (MIC), comparison bacteria; details: for minimum inhibitory concentration (MIC): Gram positive
Experimental: as §1, §2

[7] = system: Proteus vulgaris (ATCC 13315); assay: Antibacterial test (MIC), comparison bacteria; details: for minimum inhibitory concentration (MIC): Gram negative
Experimental: as §1, §2

[8] = system: Pseudomonas aeruginosa (ATCC 9027); assay: Antibacterial test (MIC), comparison bacteria; details: for minimum inhibitory concentration (MIC): Gram negative
Experimental: as §1, §2

[9] = system: Salmonella typhimurium (ATCC 13311); assay: Antibacterial test (MIC), comparison bacteria; details: Gram negative
Experimental: as §1, §2

[10] = system: Staphylococcus aureus (MRSA, ATCC 33591); assay: Antibacterial test (MIC), comparison bacteria; details: Gram positive
Experimental: as §1, §2

[11] = system: Staphylococcus epidermidis (ATCC 12228); assay: Antibacterial test (MIC), comparison bacteria; details: for minimum inhibitory concentration (MIC): Gram positive
Experimental: as §1, §2

[12] = system: Streptococcus pneumonia (ATCC 6301); assay: Antibacterial test (MIC), comparison bacteria; details: for minimum inhibitory concentration (MIC): Gram positive
Experimental: as §1, §2

[13] = system: Gram negative or Gram positive bacteria; assay: Antibacterial test (MIC), comparison bacteria summarised in text; details: text summary over the comparison bacteria
Experimental: ATCC43504 which was a standard bacterial strain was used as Helicobacter pylori (H. pylori) to perform the test in vitro in a Columbia agar medium. The bacteria were cultured at 37° C. and a pH of 7.0 for three days. The minimum inhibitory concentration (MIC, μg/ml) was found on the fourth day. Each sample was dissolved in 1% DMSO to use. As control drugs for the antibacterial agent, ampicillin (AMPC), clarithromycin (CAM), and gentamycin (GEM) were used. As bacteria for comparison, Gram negative bacteria, for example, E. coli (ATCC 10536 ATCC 25922), Klebsiella pneumonia (ATCC 10031), Proteus vulgaris (ATCC 13315), Pseudomonas aeruginosa (ATCC 9027) and Salmonella typhimurium (ATCC 13311) were used and Gram positive bacteria, for example, Staphylococcus aureus, MRSA (ATCC 33591), Staphylococcus epidermidis (ATCC 12228), Streptococcus pneumonia (ATCC 6301), Mycobacterium ranae (ATCC 110) and Enterococcus faecalis (VRE, ATCC 51575) were used.
as §2

[14] = read-out: minimum inhibitory concentration (MIC)
[15] = Columbia agar medium, 37° C., pH 7.0, cultured three days, MIC found on the fourth day

Row | Compound | minimum inhibitory concentration (MIC) [1, 15] | minimum inhibitory concentration (MIC) [2] | minimum inhibitory concentration (MIC) [3] | minimum inhibitory concentration (MIC) [4] | minimum inhibitory concentration (MIC) [5] | minimum inhibitory concentration (MIC) [6] | minimum inhibitory concentration (MIC) [7] | minimum inhibitory concentration (MIC) [8] | minimum inhibitory concentration (MIC) [9] | minimum inhibitory concentration (MIC) [10] | minimum inhibitory concentration (MIC) [11] | minimum inhibitory concentration (MIC) [12] | also measured
1 | COCCOCCOc1ccnc(SCc2nc3ccccc3[nH]2)c1C.Cl [Example 12, 2-[[[4-[2-(2-methoxyethoxy)-ethoxy]-3-methyl-2-pyridyl]thio]-methyl]-1H-benzimidazole hydrochloride] | – | – | – | – | – | – | – | – | – | – | – | – | MIC ([1]; Helicobacter pylori, ATCC43504, 72 h, pH 7, Helicobacter pylori ATCC 43504, Columbia agar medium, 37° C., pH 7.0, cultured three days, MIC found on the fourth day, read-out: minimum inhibitory concentration (MIC)): 0.3 µg/mL; MIC [2, 14]: > 100 µg/mL; MIC ([3]; ATCC10536, Gram negative, read-out: minimum inhibitory concentration (MIC)): > 100 µg/mL; MIC ([4]; ATCC25922, Gram negative, read-out: minimum inhibitory concentration (MIC)): > 100 µg/mL; MIC ([5]; Klebsiella pneumoniae, ATCC10031, Gram negative, read-out: minimum inhibitory concentration (MIC)): > 100 µg/mL; MIC ([6]; ATCC110, Gram positive, read-out: minimum inhibitory concentration (MIC)): > 100 µg/mL; MIC ([7]; ATCC13315, Gram negative, read-out: minimum inhibitory concentration (MIC)): > 100 µg/mL; MIC ([8]; ATCC9027, Gram negative, read-out: minimum inhibitory concentration (MIC)): > 100 µg/mL; MIC ([9]; Salmonella enterica, read-out: minimum inhibitory concentration (MIC)): > 100 µg/mL; MIC [10, 14]: > 100 µg/mL; MIC ([11]; ATCC12228, Gram positive, read-out: minimum inhibitory concentration (MIC)): > 100 µg/mL; MIC ([12]; Streptococcus pneumoniae, ATCC6301, Gram positive, read-out: minimum inhibitory concentration (MIC)): > 100 µg/mL
2 | Cc1c(OCCOCCOCC(F)(F)F)ccnc1SCc1nc2ccccc2[nH]1.Cl [Example 9] | 0.3 µg/mL | 100< μg/ml | 100< μg/ml | 100< μg/ml | 100< μg/ml | 100< μg/ml | 100< μg/ml | 100< μg/ml | 100< μg/ml | 100< μg/ml | 100< μg/ml | 100< μg/ml | –
3 | Gentamycin [GEM, reference compound] | 0.3 µg/mL | 100 µg/mL | 0.3 µg/mL | 1.0 µg/mL | 1.0 µg/mL | 0.3 µg/mL | 0.3 µg/mL | 1.0 µg/mL | 3.0 µg/mL | 1.0 µg/mL | 0.1 µg/mL | 100 µg/mL | MIC against Helicobacter pylori ([1]; control drug): 0.3 µg/mL; MIC against Gram negative or Gram positive bacteria [13]: 0.1 to 1.0 µg/mL
